Experimental data reported in PubChem BioAssay (NCI).
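The compound was tested at five concentrations on cells cultured in 96-well plates, with a 48-hour exposure period. The concentration for full growth arrest is given as TGI.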

Legend:
Test in all cases: NCI-60 cell line screen, 48 h
HT29 colon = system: HT29 colon
OVCAR-4 ovarian = system: OVCAR-4 ovarian
SF-539 CNS = system: SF-539 CNS
SR leukemia = system: SR leukemia
SK-MEL-28 melanoma = system: SK-MEL-28 melanoma
A498 renal = system: A498 renal
OVCAR-8 ovarian = system: OVCAR-8 ovarian
UACC-257 melanoma = system: UACC-257 melanoma
UACC-62 melanoma = system: UACC-62 melanoma
HOP-62 NSCLC = system: HOP-62 NSCLC
MOLT-4 leukemia = system: MOLT-4 leukemia
COLO 205 colon = system: COLO 205 colon
HL-60(TB) leukemia = system: HL-60(TB) leukemia
ACHN renal = system: ACHN renal
XF 498 CNS = system: XF 498 CNS
HOP-18 NSCLC = system: HOP-18 NSCLC
KM20L2 colon = system: KM20L2 colon
DMS 114 small cell lung = system: DMS 114 small cell lung
DMS 273 small cell lung = system: DMS 273 small cell lung
HCT-15 colon = system: HCT-15 colon
TK-10 renal = system: TK-10 renal
SN12C renal = system: SN12C renal
NCI-H23 lung = system: NCI-H23 lung
NCI-H460 lung = system: NCI-H460 lung
EKVX NSCLC = system: EKVX NSCLC
RPMI-8226 leukemia = system: RPMI-8226 leukemia
NCI-H522 lung = system: NCI-H522 lung
HCC-2998 colon = system: HCC-2998 colon
SK-MEL-2 melanoma = system: SK-MEL-2 melanoma
K-562 leukemia = system: K-562 leukemia
MALME-3M melanoma = system: MALME-3M melanoma
IGROV1 ovarian = system: IGROV1 ovarian
A549 NSCLC = system: A549 NSCLC
NCI-H226 lung = system: NCI-H226 lung
SW-620 colon = system: SW-620 colon
M14 melanoma = system: M14 melanoma
OVCAR-3 ovarian = system: OVCAR-3 ovarian
CCRF-CEM leukemia = system: CCRF-CEM leukemia
DLD-1 colon = system: DLD-1 colon
SK-OV-3 ovarian = system: SK-OV-3 ovarian
OVCAR-5 ovarian = system: OVCAR-5 ovarian
RXF 393 renal = system: RXF 393 renal
UO-31 renal = system: UO-31 renal
HOP-92 NSCLC = system: HOP-92 NSCLC
SNB-19 CNS = system: SNB-19 CNS
KM12 colon = system: KM12 colon
U251 CNS = system: U251 CNS
SK-MEL-5 melanoma = system: SK-MEL-5 melanoma
HCT-116 colon = system: HCT-116 colon
SF-295 CNS = system: SF-295 CNS
SNB-75 CNS = system: SNB-75 CNS
LOX IMVI melanoma = system: LOX IMVI melanoma
M19-MEL melanoma = system: M19-MEL melanoma
SF-268 CNS = system: SF-268 CNS
SNB-78 CNS = system: SNB-78 CNS
786-0 renal = system: 786-0 renal
CAKI-1 renal = system: CAKI-1 renal
LXFL 529 NSCLC = system: LXFL 529 NSCLC

Measured: TGI

C#Cc1ccccc1C(=O)OC
not listed: M19-MEL melanoma | SF-268 CNS | SNB-78 CNS | 786-0 renal | CAKI-1 renal | LXFL 529 NSCLC
> 100 µM: all other assays above

CN(C)/C(=N/C(=O)Nc1ccccc1)SCc1ccccc1
not listed: SR leukemia | KM20L2 colon | NCI-H460 lung | HOP-92 NSCLC | HCT-116 colon
> 100 µM: all other assays above
